Experimental data from patent US11930819B2, “Antimicrobial compositions with enhanced efficacy” (ECOLAB USA INC., priority 2017, dated 2024).
“Also recorded” adds a separate entry of the source.

Tests used:
Assay type in all cases: cell-based
[1] = test system: Serratia marcescens ATCC 14756; assay: Time Kill Efficacy, chelant comparison; conditions: chelant added to cationic active-containing base formula
Protocol: Testing was performed to assess performance of differing chelants. Multiple amino acid based chelants were tested in exemplary compositions of the invention and tested against a control formulation containing no chelant.
Formula 5A served as the control having no chelant. Formulas 5B and 5C included GLDA and MGDA, respectively, for comparative testing against each other and the control. The compositions were inoculated with Serratia marcescens ATCC 14756 for 30 seconds at room temperature. Before adding the antimicrobial compositions, the inoculum numbers were measured (CFO/mL). The average count was […] providing a log average of 8.06. The inoculated surface was contacted with the various formulations for 30 seconds and the log reduction was measured.

[2] = test system: Serratia marcescens ATCC 14756; assay: in vitro Time Kill testing (ASTM E 2315), Serratia marcescens; conditions: 1.2% cationic surfactant with 0.6% benzalkonium chloride, Table 6
Protocol: (§1) In Examples 1-4, the survival of challenged organisms exposed to an antimicrobial test composition was measured using in vitro Time Kill testing, based on ASTM E 2315 Standard Guide for Assessment of Antimicrobial Activity Using a Time Kill Procedure. Utilizing this method, the inoculum is prepared by growing a microbial culture using a D/E agar medium. The microbial population then is washed from the agar with sterile physiological saline and the population of the microbial suspension is adjusted to around 10^8 colony forming units (cfu) per ml. An aliquot of the test formula, or a dilution thereof, is brought into contact with this known population of bacteria at ambient temperature. The test composition is neutralized after a set amount of time, which arrests the antimicrobial activity of the test sample. The log reduction from the original bacteria population is calculated using the following formula: log10 reduction=log10(control)−log10(test sample survivors) Each test was performed in duplicate and the average log reduction reported.
Once it was determined that cationic surfactants with chain lengths having 18 or less carbons provided enhanced microbiological efficacy, three such cationic surfactants were evaluated against Serratia marcescens, a Gram negative microorganism. […]

[3] = test system: Escherichia coli ATCC 11229; assay: in vitro Time Kill testing (ASTM E 2315), cationic-compatible surfactants, Table 4; conditions: 1% surfactant in 0.2% benzalkonium chloride formula
Protocol: as §1, with “reported. The efficacy of formulations with differing cationic-compatible surfactants with the same alkyl chain length is outlined in Tables 3 and 4. In each instance, citric acid and/or potassium hydroxide were used to maintain a pH of 6, and water was added quantum satis. […]” for “reported.”

| Compound | effect of chelant on antimicrobial efficacy of base formula [1] | degree of microbiological efficacy [2] | impact on microbiological efficacy [3] |
| --- | --- | --- | --- |
| O=C(O)CC[C@@H](C(=O)O)N(CC(=O)O)CC(=O)O [GLDA, Glutamic acid diacetic acid] | did not show any enhancement of antimicrobial efficacy | – | – |
| CCCCCCCCCCCC[N+](C)(C)C.[Cl-] [Laurtrimonium chloride, Lauryl Trimethyl Ammonium Chloride] | – | highest degree of efficacy | – |
| CC(C(=O)O)N(CC(=O)O)CC(=O)O (stereo not drawn) [MGDA, Methylglycinediacetic acid] | significantly enhance the biocidal activity; also recorded: much higher log reduction | – | – |
| CCCCCCCCCCCCCCCC(=O)NCCC[N+](C)(C)C.[Cl-] [Palmitamidopropyl trimonium chloride, Palmitamidopropyl Trimonium Chloride] | – | lowest degree of microbiological efficacy | – |
| Cocamidopropyl Betaine | – | – | significant negative impact on microbiological efficacy |
| Coco Glucoside | – | – | negative impact on microbiological efficacy |
